We go through 18 compounds from patent US11873298B2, “Compounds and uses thereof” (JANSSEN PHARMACEUTICA NV, priority 2017, dated 2024).

For one assay, the target named is T1, SCD5 (Homo sapiens, UniProt Q86SK9).
T1 construct: host or cells: S. cerevisiae ole1Δ strain (W303 pdr1Δ pdr3Δ background), plasmid pRS316 with TDH3 promoter and CYC1 terminator
T1 sequence (Q86SK9 1-330): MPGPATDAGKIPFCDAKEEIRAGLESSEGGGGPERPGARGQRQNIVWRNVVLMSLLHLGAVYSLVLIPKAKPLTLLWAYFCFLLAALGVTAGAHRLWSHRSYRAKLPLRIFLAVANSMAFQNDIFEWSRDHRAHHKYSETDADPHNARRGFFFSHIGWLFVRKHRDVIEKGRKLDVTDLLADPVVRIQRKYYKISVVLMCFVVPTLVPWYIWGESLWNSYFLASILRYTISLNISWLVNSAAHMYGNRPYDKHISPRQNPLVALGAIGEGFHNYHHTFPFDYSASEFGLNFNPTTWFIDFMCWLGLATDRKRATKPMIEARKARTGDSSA
Description: Growth inhibition of humanized yeast strain expressing SCD5 as sole desaturase. The class given is cell-based. As to conditions: humanized yeast strain expressing SCD5. A digest of the protocol: (§1)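 Plasmid-complemented ole1Δ yeast, drug-pump deleted (pdr1Δ pdr3Δ), depend solely on the introduced Ole1, SCD1 or SCD5 desaturase. Compounds are added from DMSO to cells in uracil-free galactose medium, 2× density 0.02, and OD600 is read after 24 h or 40 h respectively.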

Another assay concerns the target T2, SCD1 (Homo sapiens, UniProt O00767).
T2 construct: host or cells: S. cerevisiae ole1Δ strain (W303 pdr1Δ pdr3Δ background), plasmid pRS316 with TDH3 promoter and CYC1 terminator
T2 sequence (O00767 1-359): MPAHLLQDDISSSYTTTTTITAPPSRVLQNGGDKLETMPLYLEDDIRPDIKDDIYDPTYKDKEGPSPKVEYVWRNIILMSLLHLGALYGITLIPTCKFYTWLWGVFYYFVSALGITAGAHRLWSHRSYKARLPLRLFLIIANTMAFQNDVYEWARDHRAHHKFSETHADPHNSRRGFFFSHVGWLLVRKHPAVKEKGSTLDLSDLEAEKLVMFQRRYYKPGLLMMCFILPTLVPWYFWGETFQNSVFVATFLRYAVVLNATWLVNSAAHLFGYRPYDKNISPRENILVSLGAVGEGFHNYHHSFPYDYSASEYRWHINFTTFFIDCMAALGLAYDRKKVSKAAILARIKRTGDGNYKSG
Description: Growth inhibition of humanized yeast strain expressing SCD1 as sole desaturase. The class given is cell-based. As to conditions: humanized yeast strain expressing SCD1. A digest of the protocol:
as §1

For assay [1], the system named is yeast strains expressing the human ApoE4. Description: Yeast ApoE4 toxicity rescue assay (OD600 growth). As to conditions: 24 h; for EC50: read-out: ApoE4 EC50; for Emax: read-out: ApoE4 Emax.
Description: The induced expression of α-synuclein and ApoE4 confers cytotoxicity, thus enabling the identification of compounds that can restore cell viability. This instantaneous/synchronous induction of α-synuclein and ApoE4 can be achieved due to the following expression control. In glucose-containing media, gene expression from the GAL1 promoter is ‘off’ and actively repressed by additional epigenetic factors. In raffinose, expression is ‘off’, but the promoter not actively repressed. Upon transition to galactose-containing media, the promoter is instantaneously turned ‘on’ to achieve robust and synchronous induction of α-synuclein or ApoE4 expression. This highly regulated induction provides a robust window for the determination of both efficacy (amplitude of protective effect) and potency (concentration of protective effect) of cytoprotective compounds.
Re-suspended compound stocks were subsequently arrayed into 384 well compound plates using automated pipetting. All other wells not receiving stock compound were filled with 10 μL of 100% DMSO using an automated plate filler (Multidrop Combi). An 11 point, 2-fold serial dilution was then performed using the robotic platform. Compound assay plates were covered with foil and stored at −20° C. until use.
Each strain was handled according to standard protocols and cultured in media composed of CSM (complete synthetic media), YNB (yeast nitrogenous base), and a 2% (w/v) carbon source (either glucose, raffinose, or galactose).
In a standard yeast assay, a single-use aliquot of cells was thawed on ice and diluted into CSM/glucose (5 mL). Cultures were grown for 8 hours at 30° C. This pre-growth enables the yeast to exit the thaw and begin to grow without expressing aSyn or ApoE4. After 8 hours, cell density (OD600) was determined and cultures diluted to an OD600 of 0.01 in CSM/raffinose for an overnight culture phase at 30° C. During this period, the active glucose repression of the GAL1 promoter was relieved; however, expression of the α-Syn/ApoE4 genes were not yet induced. After ˜16 hours of growth, cultures attain an OD600 of 0.4-0.8 and were ready to apply to assay plates containing compound.
Compound profiling assays were executed in clear-bottom 384 well plates. First, compound plates were thawed at room temperature for 45′, centrifuged at 1,000×g for 1 minute, and the foil removed. Clear 384 well assay plates were then filled with 15 μL of CSM/galactose. […] The pin tool was washed iteratively with both 50% DMSO and 100% ethanol between each assay plate. After delivering compound to each assay plate, the overnight CSM/raffinose aSyn or ApoE4 cultures were added at a 2X cell density (0.04 for aSyn and 0.08 for ApoE4) in CSM/galactose to achieve a final assay OD600 of 0.02 and 0.04 for aSyn and ApoE, respectively. The cultures (15 μL per well) were then dispensed to the compound -containing 384 well assay plates using an automated plate filler. Plates were incubated in a humidified 30° C. incubator for 40 or 24 hours for aSyn and ApoE4, respectively. The ODsoo of each assay plate was then read with a microplate reader (e.g., Perkin Elmer Envision).
The efficacy and potency of compounds were calculated according to the following. Raw data (OD600 values) were first background corrected to account for OD600 contributed by the plate and media itself. The efficacy (percent above DMSO, herein referred to as “Emax”) was calculated according to the equation: (Experimental well−DMSO control well)/(DMSO control well)*100. […] Normalized dose-response data was fit with a logistic regression curve using Spotfire (TIBCO), or similar curve-fitting software package. EC50 values were then reported along with EMax to provide both efficacy and potency measures for each analog and enable further compound design.
Assay [2] concerns yeast strains expressing the human α-synuclein. Description: Yeast α-synuclein toxicity rescue assay (OD600 growth). As to conditions: 40 h; for EC50: read-out: α-Syn EC50; for Emax: read-out: α-Syn Emax.
In another assay the target is T3, Ole1 (Saccharomyces cerevisiae, UniProt P21147).
T3 construct: expressed in transfected cells; host or cells: S. cerevisiae ole1Δ strain (W303 pdr1Δ pdr3Δ background), plasmid pRS316 with TDH3 promoter and CYC1 terminator
T3 sequence (P21147 1-510): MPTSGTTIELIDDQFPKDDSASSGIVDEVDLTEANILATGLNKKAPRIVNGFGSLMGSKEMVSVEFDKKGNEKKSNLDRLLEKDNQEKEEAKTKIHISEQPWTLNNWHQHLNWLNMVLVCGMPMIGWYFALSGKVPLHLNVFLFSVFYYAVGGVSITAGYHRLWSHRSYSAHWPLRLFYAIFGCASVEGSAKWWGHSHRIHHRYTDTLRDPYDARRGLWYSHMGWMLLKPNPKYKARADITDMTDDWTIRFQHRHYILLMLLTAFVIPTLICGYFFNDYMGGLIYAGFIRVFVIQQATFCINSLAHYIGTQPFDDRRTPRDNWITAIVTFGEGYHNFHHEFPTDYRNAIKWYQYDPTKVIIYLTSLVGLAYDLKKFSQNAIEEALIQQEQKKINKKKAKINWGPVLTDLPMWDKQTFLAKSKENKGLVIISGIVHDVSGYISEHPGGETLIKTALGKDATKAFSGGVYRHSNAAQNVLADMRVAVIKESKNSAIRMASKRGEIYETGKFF
Description: Growth inhibition of yeast strain expressing Ole1 as sole desaturase. The class given is cell-based. As to conditions: yeast strain expressing Ole1 as sole desaturase. A digest of the protocol:
as §1

For the compound `COc1ccc(-c2noc(C3CCN(C(=O)C4CC(=O)N(c5ccc(C)c(C)c5)C4)CC3)n2)cc1` (stereo not shown) [compound 20], the IC50 against SCD5, against SCD1 and against Ole1 was greater than 45 µM throughout. In addition, the values for the EC50 in assay [1] and in assay [2] were 16.2 µM and 15.1 µM, respectively. For the same compound, the Emax in assay [1] worked out at 529%; in assay [2] it was 181%.
Regarding `O=C(NCC(=O)N1CCC(c2nc(-c3ccc(F)cc3)no2)CC1)c1ccccc1` [Compound 41], on SCD5, the IC50 (as a rule, the midpoint of a concentration-inhibition curve) was greater than 45 µM and the “SCD5 % Max Inhibition” value is 43.51%. Also, at SCD1, the IC50 worked out at 38.7 µM and the “SCD1 % Max Inhibition” value is listed as 55.28%. Further, the Emax in assay [1] is 400%. Besides, in assay [2], the EC50 (as a rule, the concentration that produces a half-maximal response) is 10.9 µM and the Emax is 211%. Moreover, at Ole1, the IC50 was greater than 45 µM and the “OLE1 % Max Inhibition” value is on record as 85.45%.
In the case of `CCOc1ccc(-c2noc(C3CCN(C(=O)[C@@H]4CC(=O)N(c5ccccc5)C4)CC3)n2)cc1OC` [compound 86], the IC50 is 33.3 µM at SCD5, greater than 45 µM against SCD1 and greater than 45 µM at Ole1. For the same compound, the EC50 in assay [1] came to 0.064 µM; in assay [2], 0.018 µM. The Emax turned out to be 633% in assay [1] and 772% in assay [2].
In the case of `Cc1cccc(-c2nc(C3CCN(C(=O)[C@H]4CC(=O)N(c5ccc(C)c(C)c5)C4)CC3)no2)c1` (single isomer, unassigned) [compound 73], the IC50 against SCD5 was greater than 45 µM; against SCD1, 33.7 µM; at Ole1, greater than 45 µM. Moreover, the Emax in assay [1] was determined as 303%; in assay [2] it was 151%. For the same compound, in assay [2], the EC50 was determined as 15.8 µM.
With `Cc1cccc(-c2noc(C3CCN(C(=O)C4CC(=O)N(c5ccc(C)c(C)c5)C4)CC3)n2)c1` (stereo not shown) [compound 3], the IC50 was greater than 45 µM against SCD5, greater than 45 µM against SCD1 and 38.5 µM at Ole1. The Emax is 200% in assay [1] and 307% in assay [2]. The EC50 in assay [2] amounted to 17.8 µM.
As for `COc1ccc(-c2noc(C3CCN(C(=O)[C@H](C)NC(=O)c4ccccc4)CC3)n2)cc1OC` (single isomer, unassigned) [Compound 59], at SCD5, the IC50 is greater than 45 µM and the “SCD5 % Max Inhibition” value was found to be 59.32%. At SCD1, the IC50 was greater than 45 µM and the “SCD1 % Max Inhibition” value is reported as 79.13%. Further, in assay [1], the Emax was determined as 47%. Moreover, in assay [2], the EC50 turned out to be 15.7 µM and the Emax is 82%. Moreover, on Ole1, the IC50 is greater than 45 µM and the “OLE1 % Max Inhibition” value is on record as 105.25%.
In the case of `Cc1cccc(-c2nc(C3CCN(C(=O)C4CC(=O)N(c5ccc(C)c(C)c5)C4)CC3)no2)c1` (stereo not shown) [Compound 51], on SCD5, the IC50 was greater than 45 µM and the “SCD5 % Max Inhibition” value was 6.59%. Besides, at SCD1, the IC50 was greater than 45 µM and the “SCD1 % Max Inhibition” value is reported as 76.83%. Besides, the Emax in assay [1] came to 286%. Moreover, in assay [2], the EC50 amounted to 10.9 µM and the Emax is 137%. On Ole1, the IC50 is greater than 45 µM and the “OLE1 % Max Inhibition” value was 102.56%.
As for `COc1cccc(-c2noc(C3CCN(C(=O)C4CC(=O)N(c5ccc(C)c(C)c5)C4)CC3)n2)c1` (stereo not shown) [compound 21], the IC50 against SCD5 was greater than 45 µM; against SCD1 it was 39.9 µM; on Ole1, greater than 45 µM. In addition, the figures for the Emax in assay [1] and in assay [2] were 447% and 276%, respectively.
Consider `COc1ccc(-c2noc(N3CCC(C(=O)N4CCCCC4)CC3)n2)cc1OC` [compound 6], for which the IC50 against SCD5 was 41.1 µM; against SCD1 it was greater than 45 µM; at Ole1 it was 39.1 µM. The results for the EC50 in assay [1] and in assay [2] were 15.1 µM and 10.2 µM, respectively. Also, the results for the Emax in assay [1] and in assay [2] were 815% and 460%, respectively.
Regarding `COc1cccc(-c2noc(C3CCN(C(=O)CNC(=O)c4ccc(C)c(C)c4)CC3)n2)c1` [compound 17], the IC50 against SCD5, against SCD1 and against Ole1 was greater than 45 µM throughout. In addition, the Emax is 246% in assay [1] and 330% in assay [2]. Moreover, in assay [2], the EC50 stood at 17.4 µM.
As to `O=C(NCC(=O)N1CCC(c2nc(-c3cccc(F)c3)no2)CC1)c1ccccc1` [Compound 42], at SCD5, the IC50 is greater than 45 µM and the “SCD5 % Max Inhibition” value was 47.40%. At SCD1, the IC50 was greater than 45 µM and the “SCD1 % Max Inhibition” value is recorded as 90.77%. Also, the Emax in assay [1] came out at 399%. Moreover, in assay [2], the EC50 is 12.5 µM and the Emax is 255%. Further, on Ole1, the IC50 was greater than 45 µM and the “OLE1 % Max Inhibition” value is recorded as 95.43%.
Consider `COc1ccc(-c2noc(C3CCN(C(=O)[C@@H](C)NC(=O)c4ccccc4)CC3)n2)cc1OC` (single isomer, unassigned) [Compound 60], for which, at SCD5, the IC50 was 41.1 µM and the “SCD5 % Max Inhibition” value was found to be 57.19%. Besides, at SCD1, the IC50 was greater than 45 µM and the “SCD1 % Max Inhibition” value was found to be 72.03%. Moreover, in assay [1], the EC50 was 0.119 µM and the Emax amounted to 795%. Also, in assay [2], the EC50 was 0.032 µM and the Emax stood at 605%. Moreover, on Ole1, the IC50 is greater than 45 µM and the “OLE1 % Max Inhibition” value came to 2.91%.
Turning to `O=C(NCC(=O)N1CCC(c2nc(-c3ccccc3)no2)CC1)c1ccccc1` [compound 9], the IC50 against SCD5, against SCD1 and against Ole1 was greater than 45 µM in each case. Further, the Emax in assay [1] stood at 301%; in assay [2], 167%. In addition, the half-maximal effective concentration (EC50) in assay [2] worked out at 12.1 µM.
With `Cc1ccc(-c2noc(C3CCN(C(=O)[C@H]4CC(=O)N(c5ccc(C)c(C)c5)C4)CC3)n2)cc1` (single isomer, unassigned) [Compound 61], at SCD5, the IC50 was greater than 45 µM and the “SCD5 % Max Inhibition” value is recorded as 13.18%. At SCD1, the IC50 is greater than 45 µM and the “SCD1 % Max Inhibition” value was found to be 2.37%. Also, in assay [1], the EC50 is 19.4 µM and the Emax stood at 465%. In assay [2], the EC50 amounted to 19.7 µM and the Emax was determined as 229%. Besides, on Ole1, inhibition was half-maximal at 40.9 µM (IC50) and the “OLE1 % Max Inhibition” value came out at 71.50%.
`Cc1cccc(-c2nc(C3CCN(C(=O)[C@@H]4CC(=O)N(c5ccc(C)c(C)c5)C4)CC3)no2)c1` (single isomer, unassigned) [compound 74]: the IC50 against SCD5 was greater than 45 µM; against SCD1, 31.3 µM; against Ole1, greater than 45 µM. The Emax in assay [1] came to 411%; in assay [2], 155%. Besides, in assay [2], the EC50 is 17.9 µM.
With `Cc1nn(C)c2cc(-c3noc(N4CCN(C(=O)C5CC(=O)N(c6ccccc6)C5)CC4)n3)ccc12` (stereo not shown) [compound 96], the IC50 at SCD5, against SCD1 and on Ole1 was greater than 45 µM throughout. The EC50 in assay [1] was 0.228 µM; in assay [2] it was 0.026 µM. Also, the Emax amounted to 840% in assay [1] and 343% in assay [2].
For the compound `CCOc1ccc(-c2noc(C3CCN(C(=O)NC4CC4c4ccccc4)CC3)n2)cc1OC` (stereo not shown) [compound 80], the IC50 on SCD5, on SCD1 and at Ole1 was greater than 45 µM each time. In addition, the EC50 in assay [1] was 6.01 µM; in assay [2], 3.32 µM. Moreover, the Emax in assay [1] came out at 262%; in assay [2], 188%.
`COc1ccc(-c2noc(C3CCN(C(=O)CNC(=O)c4ccccc4Cl)CC3)n2)cc1OC` [compound 25]: the values for the IC50 against SCD5, against SCD1 and against Ole1 were 39.4 µM, greater than 45 µM and greater than 45 µM, respectively. Also, the EC50 in assay [1] was found to be 1.85 µM; in assay [2] it was 0.751 µM. The results for the Emax in assay [1] and in assay [2] were 889% and 619%, respectively.
